Test results taken from US20200148682A1, “AKT ISOZYME-SPECIFIC COVALENT INHIBITORS DERIVED FROM REDOX-SIGNALING LIPIDS” (Cornell University, priority 2017, published 2020).
Entries after “also recorded” stand apart in the source; their conditions may differ.

What was measured:
Assay type in all cases: cell-based
[1] = tested on: MDA-MB-468 cells; assay: Drug effect persistence assay; settings: for proliferation after drug withdrawal vs continuous treatment: 48 hours drug, then 24 hours without
Description: (§1) After this time, cells were lysed and analyzed by antibodies for phosphorylated T305 (pT305) of Akt3, Halo (Akt), and Actin (loading control). […] FIG. 23F is a graph showing proliferation curves. […] After this time, the number of viable cells was calculated using AlamarBlue®. Proliferation curves were fitted to the PI50 equation (EQN. 4). […] FIG. 23H is a graph showing the percentage of viable cells. […] The percentage of growth relative to DMSO-treated cells is shown for the 48 hour point and the 72 hour point. FIG. 23I is a schematic showing the different methods used to derive the data in 23H.
MDA-MB-468 cells were plated in a 96-well plate at a density of 3,000-5,000 cells per well for 10 hours before the addition of varying concentrations of inhibitors. The cells were allowed to grow for 48 hours. The cell medium was aspirated and the cells were washed once with DMEM medium. The cells continued to grow in 5% FBS DMEM medium for 24 hours before adding 1/10th volume of AlamarBlue® reagent to cells in culture medium. The fluorescence emission signals at 590 nm were read using a Cytation 3 cell imaging multi-mode reader (BioTeK) using an excitation wavelength of 560 nm. Curve fitting and data analyses were performed using Prism software (FIG. 23I).

[2] = biological target: T1, Akt3 (pT305) (Homo sapiens, UniProt Q9Y243); assay: Western blot and ratiometric ELISA of Akt phosphorylation in HEK293T cells; settings: 5 μM, 48 hours
T1 construct: expressed in transfected cells; host or cells: HEK293T
Description: as §1
The proteins in gel were transferred onto a PVDF membrane in Towbin buffer at 90 V for 2 hours at 4° C. or at 33 V overnight at 4° C. […] Proteins were visualized using Pierce™ ECL Western Blotting Substrate (32106, Thermo Fisher), Pierce™ ECL2 Western Blotting Substrate (32132, Thermo Fisher) or SuperSignal™ Western Blot Enhancer (46640, Thermo Fisher), depending on the signal strength.
Anti-Halo antibody at 1 μg/mL concentration in sodium bicarbonate buffer (pH 9.6) was added to a 96-well white plate (80 μL […]) at 4° C. for 24 hours. After this, the incubation buffer was removed and the wells were washed once with TBS-T2 (100 mM Tris, 150 mM NaCl 0.03% Tween-20) and then blocked in 5% BSA in TBS-T2 (280 μL per well) for 3-5 hours at room temperature. […]

[3] = tested on: MDA-MB-468; assay: Cell viability assay (AlamarBlue); settings: MDA-MB-468, 72 hours
Description: (§2) FIGS. 22A and 22D are graphs showing results of cytotoxicity assays for MDA-MB-468 (FIG. 22A) and BT-549 (FIG. 22D). […] Stated cell lines were plated in 96-well plates (3000 cells per well) in the presence of the stated concentration of inhibitor. After 72 hours, the number of viable cells was analyzed by AlamarBlue®. Proliferation inhibition 50% (PI50) values were calculated by fitting data to “PI50 equation” (EQN 4) (FIG. 22C). MDA cells were transfected with the stated siRNA using lipofectamine 3000 for 12 hours. […] After 72 hours, the number of viable cells was calculated using AlamarBlue®. FIG. 22F is a schematic showing AlamarBlue® viability assay. […] MDA-MB-468 cells were treated with the stated drugs for 72 hours at the PI60 and PI80. After this time, cells were harvested, fixed/permeabilized with ethanol and DNA content was stained using propidium iodide (visualized in the 488-3 channel). RNA was removed simultaneously using RNAse. After 30 min at room temperature, cells were analyzed by flow cytometry.
(§3) Indicated cells were plated in a 96-well plate containing the DMEM complete medium (see Example 11 for complete medium formulation, 100 μL per well) with a density of 3,000-5,000 cells per well for 12 hours followed by the addition of varying concentrations of inhibitors in rinse medium (100 μL). The cells were allowed to grow for 72 hours and 100 μL of the culture medium was removed from each well. This was followed by the addition of 10 μL AlamarBlue® reagent to each well. The fluorescence emission signals at 590 nm were read by Cytation 3 cell imaging multi-mode reader (BioTeK) using an excitation wavelength of 560 nm. Curve fitting and data analysis were performed using Prism software.

[4] = tested on: BT-549; assay: Cell viability assay (AlamarBlue); settings: BT-549, 72 hours
Description: as §2, §3

[5] = biological target: T2, Halo-Akt3 (Homo sapiens, UniProt Q9Y243); assay: In-gel fluorescence assay (Cy5-azide click) of covalent labeling in transfected HEK293T cells; settings: 5 μM, 48 hours
T2 construct: expressed in transfected cells; host or cells: HEK293T
Description: HEK293T cells were transfected with Halo-Akt3 for 20 hours, then treated with the stated compound (5 μM, 48 hours). After this time, cells were lysed and the labeling was assayed by click chemistry. […] FIGS. 19A, 19C top gels are images showing in gel fluorescence, Cy5 channel. M is a molecular weight ladder. FIG. 19A, 19C lower panels are images of western blots (probing for Halo and actin, respectively) transferred from the same gel as the top image. […] FIGS. 19E-19F are graphs showing quantitation of in-gel Cy5 signal intensity, divided by the western blot signal for Halo.
Cell transfection with the designated plasmid encoding a given HaloTag-Akt fusion gene was carried out following the general procedure described in Example 12. After 20-24 hours, the transfection media were aspirated and replaced with fresh 2 mL rinse MEM medium supplemented with 3% FBS containing the indicated concentration of inhibitor or the equivalent final volume of DMSO and the plates were incubated for the indicated period of time. Cells were then harvested and lysed following the general procedure described in Examples 11 and 13. A portion of the lysate was made up to 25 μL final volume containing, in final concentrations, 5% t-BuOH, [2 mM TCEP, 1% SDS, 1 mM CuSO4, 0.1 mM Cu(TBTA), 10 μM Cy5 azide made up as a 10× stock in water] and 1.0 mg/mL lysate protein. The samples were incubated at 37° C. for 30 min and subsequently quenched with 8 μL of 4×Laemmeli dye containing 6% f ME. After an additional 5-min incubation at 37° C., samples were resolved on a 10% SDS-PAGE gel following the general procedure described in Example 14. After electrophoresis, the gel was rinsed three times with ddH2O and imaged on a Bio-Rad Chemi-doc-MP Imager. Where applicable, the gel was transferred to a PVDF membrane for western blot analysis following the general procedure described in Example 15.

[6] = tested on: endogenous Akt; assay: Biotin-azide pulldown of endogenous Akt kinases from native HEK293T cells; settings: 5 μM, 12 hours
Description: A fraction of each sample was used for the input blot. The remaining cell lysates were labeled with biotin-azide using standard click chemistry followed by streptavidin enrichment.
HEK293T cells were split in 100 cm^2 plates. […] Cells were harvested, washed twice with chilled 1×DPBS and flash frozen. Cell lysis was performed in 200 μL lysis buffer following general procedure described in Example 13, Each lysate was subsequently diluted to 2 mg/mL with lysis buffer and a small fraction of each lysate sample was kept for input gel. The remaining lysates were subjected to click reaction with biotin-azide for 30 min at 37° C. The final concentrations of each component was: 2 mM TCEP, 5% t-BuOH, 1% SDS, 1 mM CuSO4, 0.1 mM Cu(TBTA), 10 μM biotin-azide and 1.2 mg/mL lysate protein. The lysate proteins were precipitated by adding four volumes of ethanol pre-chilled at −20° C. The sample was vortexed and incubated at −80° C. overnight (or at least 4 hours). The precipitant was collected by centrifugation at 20,000×g for 30 min at 4° C. and washed twice with pre-chilled methanol then acetone. The pellet was resuspended in 25 μL 50 mM HEPES (pH 7.6), 8% LDS and 0.5 μM EDTA and dissolved by vortexing and heating at 42° C. for 5 min. […]

[7] = biological target: T3, Akt2 (pT309) (Homo sapiens, UniProt P31751); assay: Western blot and ratiometric ELISA of Akt phosphorylation in HEK293T cells; settings: 5 μM, 48 hours
T3 construct: expressed in transfected cells; host or cells: HEK293T
T3 sequence (P31751 whole entry): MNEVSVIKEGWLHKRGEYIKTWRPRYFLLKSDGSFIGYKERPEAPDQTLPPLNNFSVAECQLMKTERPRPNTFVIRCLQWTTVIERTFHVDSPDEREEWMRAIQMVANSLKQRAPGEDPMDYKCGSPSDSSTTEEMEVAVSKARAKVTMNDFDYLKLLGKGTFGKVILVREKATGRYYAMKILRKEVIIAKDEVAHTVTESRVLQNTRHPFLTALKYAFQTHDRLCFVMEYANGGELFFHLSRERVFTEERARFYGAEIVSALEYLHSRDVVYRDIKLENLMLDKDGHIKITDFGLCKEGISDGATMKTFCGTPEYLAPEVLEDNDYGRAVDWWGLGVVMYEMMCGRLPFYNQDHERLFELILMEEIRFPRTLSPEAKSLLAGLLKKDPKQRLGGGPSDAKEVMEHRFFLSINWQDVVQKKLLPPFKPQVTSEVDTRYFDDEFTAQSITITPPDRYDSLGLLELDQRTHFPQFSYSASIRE

T2 sequence (Q9Y243 whole entry): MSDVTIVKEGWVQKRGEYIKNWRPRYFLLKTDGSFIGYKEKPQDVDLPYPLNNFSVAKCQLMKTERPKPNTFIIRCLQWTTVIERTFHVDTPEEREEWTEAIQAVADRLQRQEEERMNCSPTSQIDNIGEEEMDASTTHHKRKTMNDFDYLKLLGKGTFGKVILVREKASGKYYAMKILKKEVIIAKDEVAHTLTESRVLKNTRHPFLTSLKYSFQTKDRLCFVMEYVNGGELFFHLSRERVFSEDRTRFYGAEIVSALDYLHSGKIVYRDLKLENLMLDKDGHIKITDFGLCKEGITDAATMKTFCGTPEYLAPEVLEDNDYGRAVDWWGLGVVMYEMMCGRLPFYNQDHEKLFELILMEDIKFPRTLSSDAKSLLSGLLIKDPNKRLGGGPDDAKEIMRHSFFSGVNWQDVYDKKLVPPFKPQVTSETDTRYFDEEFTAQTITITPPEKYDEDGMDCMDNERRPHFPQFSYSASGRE
T1 sequence (Q9Y243 whole entry): as above

| phosphorylation level of Akt2 [7] | SMILES | proliferation after drug withdrawal vs continuous treatment [1] | EC60 concentration ([1]; MDA-MB-468, concentration used for 48 hours treatment) | phosphorylation of T305 of Akt3 [2] | toxicity / potency relative to MK-2206 [3] | toxicity / potency relative to MK-2206 [4] | covalent labeling of Halo-Akt3 [5] | labeling of endogenous Akt (streptavidin enrichment, anti-pan-Akt blot) [6] |
| --- | --- | --- | --- | --- | --- | --- | --- | --- |
| – | NC1(c2ccc(-c3nc4ccn5c(=O)[nH]nc5c4cc3-c3ccccc3)cc2)CCC1 [MK-2206] | significant regain of proliferation | 2000 nM | lowered phospho-T305 (pT305) levels considerably | – | – | – | – |
| – | C#CCCCC(F)/C=C/C(=O)NC1(c2ccc(-c3nc4ccn5c(=O)[nH]nc5c4cc3-c3ccccc3)cc2)CCC1.Cl (centres unmarked) [MK-FNE, (E)-8-(4-(1-(4-Fluoronon-2-en-8-ynamido)cyclobutyl)phenyl)-3-oxo-9-phenyl-2,3-dihydro-[1,2,4]triazolo[3,4-f][1,6]naphthyridin-7-ium Chloride] | no difference between withdrawal (wd) and continuous (cont) treatment | – | – | similarly potent to MK-2206 | similarly potent to MK-2206 | able to elicit covalent labeling | – |
| did not affect phosphorylation levels | C#CCCCC(O)/C=C/C(=O)NC1(c2ccc(-c3nc4ccn5c(=O)[nH]nc5c4cc3-c3ccccc3)cc2)CCC1.Cl (centres unmarked) [MK-HNE, (E)-8-(4-(1-(4-Hydroxynon-2-en-8-ynamido)cyclobutyl)phenyl)-3-oxo-9-phenyl-2,3-dihydro-[1,2,4]triazolo[3,4-f][1,6]naphthyridin-7-ium Chloride] | – | – | did not affect phosphorylation levels | – | – | labeling was observed; also recorded: able to elicit covalent labeling | enrichment of endogenous Akt protein(s) |
